Test: solvent given as SMILES
[1] = in O=P(c1ccccc1)(c1ccccc1)c1ccccc1Oc1ccccc1P(=O)(c1ccccc1)c1ccccc1

## CC(C)(C)c1cc(/C2=C3\C=CC(=N3)/C(c3ccc([N+](=O)[O-])cc3)=c3/cc/c([nH]3)=C(\c3ccc([N+](=O)[O-])cc3)C3=N/C(=C(/c4cc(C(C)(C)C)cc(C(C)(C)C)c4)c4cc2c[nH]4)C=C3)cc(C(C)(C)C)c1
In CC(=O)N(C)C
  emission maximum: 717 nm

## CN(C)c1ccc(-c2nc(-c3ccccc3)n3ccccc23)cc1
In ClC(Cl)Cl
  emission maximum: 524 nm

## CCCCCCCCOc1ccc(-c2c3c4n(c(-c5ccc(OCCCCCCCC)cc5)c3c3n2[B-](F)(F)[n+]2c(ccc5cc(C(C)(C)C)ccc52)C=3C#N)[B-](F)(F)[n+]2c(ccc3cc(C(C)(C)C)ccc32)C=4C#N)cc1
In ClC(Cl)Cl
  emission maximum: 773 nm

## COc1ccc(-c2nc(-c3ccc(OC)cc3C)nc(-c3ccc(N4c5ccccc5C5(c6ccccc6-c6ccccc65)c5ccccc54)cc3C)n2)c(C)c1
In Cc1ccccc1
  emission maximum: 467 nm
[1]
  emission maximum: 469 nm

## COc1ccc(-c2c3ccc([nH]3)c3nc(c(-c4ccc(C#N)cc4)c4ccc([nH]4)c4ccc([nH]4)c(-c4ccc(OC)cc4)c4ccc2o4)C=C3)cc1
In C1CCOC1
  emission maximum: 736 nm
In Cc1ccccc1
  emission maximum: 724 nm
In c1ccccc1
  emission maximum: 724 nm

## CC1(C)C(/C=C/C2=C(Cl)C(=C/C=C3/N(Cc4ccc(C(=O)O)cc4)c4ccccc4C3(C)C)/CCC2)=[N+](Cc2ccc(C(=O)O)cc2)c2ccccc21
In CO
  emission maximum: 814 nm

## CCOC(=O)C1CC(c2c(C#N)c(C)nn2-c2ccccc2)=CN1c1ccc(Br)cc1 (configuration not stated)
In C1CCOC1
  emission maximum: 480 nm
In C1COCCO1
  emission maximum: 480 nm
In CC#N
  emission maximum: 488 nm
In CCCCCCC
  emission maximum: 455 nm
In CCO
  emission maximum: 490 nm
In O
  emission maximum: 495 nm
In OCC(O)CO
  emission maximum: 492 nm
In OCCO
  emission maximum: 495 nm

## O=C1c2ccc(N(c3ccccc3)c3ccccc3)cc2C(=O)c2ccc(N(c3ccccc3)c3ccccc3)cc21
In Cc1ccccc1
  emission maximum: 601 nm
In c1ccc2c(c1)c1ccccc1n2-c1ccc(-c2ccc(-n3c4ccccc4c4ccccc43)cc2)cc1
  emission maximum: 593 nm

## COc1ccc(-c2cc(B(c3c(C)cc(C)cc3C)c3c(C)cc(C)cc3C)c(-c3sc(-c4ccc(OC)cc4)cc3P(=O)(c3ccccc3)c3ccccc3)s2)cc1
In CO
  emission maximum: 586 nm

## CC1(C)c2ccccc2N(c2ccc3c(c2)c2ccccc2c2nc4ccccc4nc32)c2ccccc21
In Cc1ccccc1
  emission maximum: 541 nm
In c1cc(-c2cccc(-n3c4ccccc4c4ccccc43)c2)cc(-n2c3ccccc3c3ccccc32)c1
  emission maximum: 549 nm

## C1=Cc2nc1c(-c1cccs1)c1ccc([nH]1)c(-c1cccs1)c1nc(c(-c3cccs3)c3ccc([nH]3)c2-c2cccs2)C=C1
In CN(C)C=O
  emission maximum: 665 nm
In ClCCl
  emission maximum: 670 nm

## Cc1ccc2c(c1)C1(c3ccccc3Oc3ccccc31)c1cc(C)ccc1N2c1ccc(-c2ncccn2)cc1
In Cc1ccccc1
  emission maximum: 454 nm
In O=P(c1ccccc1)(c1ccccc1)c1ccc2oc3ccc(P(=O)(c4ccccc4)c4ccccc4)cc3c2c1
  emission maximum: 458 nm

## CCN(CC)c1ccc2c(-c3ccc(S(=O)(=O)O)cc3S(=O)(=O)[O-])c3ccc(=[N+](CC)CC)cc-3oc2c1
In CC#N
  emission maximum: 575 nm
In CCO
  emission maximum: 581 nm
In CN(C)C=O
  emission maximum: 576 nm
In O
  emission maximum: 591 nm

## CN(C)c1ccc(-c2ccc(-c3ncc4ccccn34)cc2)cc1
In ClC(Cl)Cl
  emission maximum: 488 nm

## CC1(C)CC(NCc2ccc3ccc4cccc5ccc2c3c45)CC(C)(C)N1[O]
In C1CCCCC1
  emission maximum: 375 nm
In CC#N
  emission maximum: 376 nm
In CO
  emission maximum: 375 nm
In ClC(Cl)Cl
  emission maximum: 376 nm

## O=P(c1ccccc1)(c1ccccc1)c1cccc(-c2nc3ccccc3n2-c2cccc(P(=O)(c3ccccc3)c3ccccc3)c2)c1
In ClCCl
  emission maximum: 376 nm

## Brc1cc2nc3cc4c5c(cccc5c3nc2cc1Br)C(c1ccccc1)=C(c1ccccc1)O4
In ClCCl
  emission maximum: 580 nm

## CCOC(=O)CN(CC(=O)OCC)c1ccc(-c2cc(-c3ccncc3)nc(-c3ccncc3)c2)cc1
In CC#N
  emission maximum: 482 nm
In CCOC(C)=O
  emission maximum: 438 nm
In CN(C)C=O
  emission maximum: 490 nm
In CS(C)=O
  emission maximum: 496 nm
In c1ccccc1
  emission maximum: 412 nm

## F[B-]1(F)n2c(Oc3ccccc3)c(Cl)c3c2C(=C2C(Br)=C(Cl)C(Oc4ccccc4)=[N+]21)Oc1ccccc1-3
In ClCCl
  emission maximum: 492 nm

## CCCCCCCCCC[n+]1cc2ccc3c[n+](CCCCCCCCCC)cc4ccc(c1)c2c34
In CC#N
  emission maximum: 424 nm

## N#Cc1cccc(-c2pc3ccccc3s2)c1 (configuration not stated)
In CC#N
  emission maximum: 432 nm

## CCOc1ccc(/C=C/c2nc(N3CCOCC3)c3c([n+]2[O-])CCCC3)cc1
In ClCCl
  emission maximum: 515 nm

## CCCCCCCCCc1c2ccccc2cc2c1oc1c3oc4c5oc6cc7ccccc7cc6c5c5ccccc5c4c3c3ccccc3c21
In C1CCOC1
  emission maximum: 428 nm

## C(=C(c1ccccc1)c1ccccc1)c1ccc(-c2cc(-c3ccc(C=C(c4ccccc4)c4ccccc4)cc3)c(-c3ccc(C=C(c4ccccc4)c4ccccc4)cc3)cc2-c2ccc(C=C(c3ccccc3)c3ccccc3)cc2)cc1
In C1CCOC1
  emission maximum: 440 nm

## Clc1nnc(Oc2ccc(N(c3ccc(Br)cc3)c3ccc(Br)cc3)cc2)nn1
In ClCCl
  emission maximum: 559 nm

## CCC1(CC)c2ccccc2-c2c1c1c(c3c2C(CC)(CC)c2cc(/C=C/c4cccs4)ccc2-3)C(CC)(CC)c2cc(/C=C/c3cccs3)ccc2-1
In C1CCOC1
  emission maximum: 397 nm

## CCCCN1/C(=C\c2c(-c3ccc(N(C)C)cc3)c(=O)c2=O)C=Cc2ccccc21
In C1CCCCC1
  emission maximum: 428 nm
In Cc1ccccc1
  emission maximum: 435 nm
In ClCCl
  emission maximum: 585 nm

## CCN(CC)c1ccc2c(c1)oc(=O)c1c(C)nc3c(cnn3-c3ccccc3)c12
In ClCCl
  emission maximum: 439 nm

## c1cc2c3c(cccc3c1)-c1c-2c2c3ccccc3c3ccc4c5c6c(c7c8ccccc8c8ccc9c%10c%11c(c%12c%13ccccc%13c%13ccc%14c1c1c2c3c4c2c1c1c%14c%13c%12c%10c1c1c9c8c7c5c21)-c1cccc2cccc-%11c12)-c1cccc2cccc-6c12
In C1CCOC1
  emission maximum: 594 nm

## C1=C(c2ccc(-c3cccs3)s2)CCC1
In C1CCOC1
  emission maximum: 413 nm
In CC#N
  emission maximum: 412 nm
In CCCCCC
  emission maximum: 410 nm
In CCO
  emission maximum: 408 nm
In OCCOCCO
  emission maximum: 416 nm
In c1ccncc1
  emission maximum: 418 nm

## c1ccc(-c2ccc3c(c2)c2cc(-c4ccccc4)ccc2n3-c2ccc3c(c2)c2cc(-n4c5ccc(-c6ccccc6)cc5c5cc(-c6ccccc6)ccc54)ccc2n3-c2ccc(-c3nc(-c4ccccc4)nc(-c4ccccc4)n3)cc2)cc1
In Cc1ccccc1
  emission maximum: 457 nm
[1]
  emission maximum: 480 nm

## Cc1cc(C)c(B(c2cc3ccc4cccc5ccc(c2)c3c45)c2c(C)cc(C)cc2C)c(C)c1
In Cc1ccccc1
  emission maximum: 434 nm

## CC[Si](CC)(CC)Oc1cccc(O[Si](CC)(CC)CC)c1-c1c2ccccc2c(-c2c(O[Si](CC)(CC)CC)cccc2O[Si](CC)(CC)CC)c2ccccc12
In C1CCCCC1
  emission maximum: 432 nm

## COc1ccc(N(c2ccc(OC)cc2)c2ccc(-c3ccc(-c4ccc5nc6ccccc6c(=O)n5c4)cc3)cc2)cc1
In ClCCl
  emission maximum: 557 nm

## Cc1cc(C)c(C2=C3C=CC(c4ccc5c(ccc6ccccc65)c4)=[N+]3[B-](F)(F)n3c2ccc3-c2ccc3c(ccc4ccccc43)c2)c(C)c1
In ClC(Cl)Cl
  emission maximum: 624 nm

## CN1C(=CC2=C([O-])C(=CC3=[N+](C)c4ccc(Cl)cc4C3(C)C)C2=O)C(C)(C)c2cc(Cl)ccc21
In CO
  emission maximum: 653 nm
In ClC(Cl)Cl
  emission maximum: 654 nm

## CC(C)[Si]1(C(C)C)c2cc(C#N)ccc2-c2ccc(N(c3ccccc3)c3ccccc3)cc21
In C1CCCCC1
  emission maximum: 413 nm
In CC#N
  emission maximum: 500 nm
In CCO
  emission maximum: 482 nm
In CCOCC
  emission maximum: 436 nm
In CS(C)=O
  emission maximum: 500 nm
In ClCCl
  emission maximum: 470 nm
In c1ccccc1
  emission maximum: 432 nm

## c1ccc(C2=C(c3ccccc3)c3cccc4c3c(cc3nc5cc(-c6ccccc6)c(-c6ccccc6)cc5nc34)O2)cc1
In ClCCl
  emission maximum: 559 nm

## O=[N+]([O-])c1ccc(NCCN(Cc2c3ccccc3cc3ccccc23)c2ccc([N+](=O)[O-])cc2[N+](=O)[O-])c([N+](=O)[O-])c1
In C1CCCCC1
  emission maximum: 419 nm
In C1CCOC1
  emission maximum: 416 nm
In CC#N
  emission maximum: 389 nm
In CC(C)=O
  emission maximum: 388 nm
In CCO
  emission maximum: 388 nm
In CN(C)C=O
  emission maximum: 409 nm
In CO
  emission maximum: 389 nm
In ClC(Cl)Cl
  emission maximum: 417 nm

## c1ccc(-c2nc(-c3ccccc3)nc(-c3ccc(N4c5ccccc5C(c5ccccc5)(c5ccccc5)c5ccccc54)cc3)n2)cc1
[1]
  emission maximum: 472.98 nm

## Cc1ccc(C(=O)/C=C2\C(=O)Nc3ccccc32)cc1C
In C1CCCCC1
  emission maximum: 387 nm
In C1COCCO1
  emission maximum: 397 nm
In CC#N
  emission maximum: 413 nm
In CC(C)(C)O
  emission maximum: 400 nm
In CC(C)O
  emission maximum: 403 nm
In CCCCCC
  emission maximum: 387 nm
In CCCCO
  emission maximum: 401 nm
In CCOC(C)=O
  emission maximum: 395 nm
In CN(C)C=O
  emission maximum: 417 nm
In CO
  emission maximum: 399 nm
In ClCCl
  emission maximum: 418 nm
In O
  emission maximum: 409 nm

## CCCCCCCCn1c2ccccc2c(=O)c2ccccc21
In CS(C)=O
  emission maximum: 414 nm

## CCCCCCCCCCCCCCCCN(CCCCCCCCCCCCCCCC)c1ccc(/C=C/c2cc[n+](Cc3cc(C[n+]4ccc(/C=C/c5ccc(N(CCCCCCCCCCCCCCCC)CCCCCCCCCCCCCCCC)cc5)cc4)cc(C[n+]4ccc(/C=C/c5ccc(N(CCCCCCCCCCCCCCCC)CCCCCCCCCCCCCCCC)cc5)cc4)c3)cc2)cc1
In C1COCCO1
  emission maximum: 578 nm
In CC(C)O
  emission maximum: 613 nm
In CCCCCC
  emission maximum: 630 nm
In CCCCCCCCO
  emission maximum: 589 nm
In CCCCO
  emission maximum: 612 nm
In CCCO
  emission maximum: 617 nm
In CCO
  emission maximum: 621 nm
In CO
  emission maximum: 624 nm
In CS(C)=O
  emission maximum: 615 nm
In Cc1ccc(C)cc1
  emission maximum: 556 nm
In Cc1ccccc1
  emission maximum: 559 nm
In ClC(Cl)Cl
  emission maximum: 587 nm
In ClCCl
  emission maximum: 606 nm
In c1ccccc1
  emission maximum: 562 nm

## O=c1oc2ccccc2nc1-c1ccc(Cl)cc1
In c1ccccc1
  emission maximum: 440 nm

## COc1ccc(C#Cc2ccccc2C#Cc2ccc(OC)cc2)cc1
In CC#N
  emission maximum: 380 nm

## O=C([O-])c1ccc(C2=c3cc4c5c(c3Oc3c2cc2c6c3CCCN6CCC2)CCC[N+]=5CCC4)c(C(=O)[O-])c1
In CCO
  emission maximum: 601 nm
In O
  emission maximum: 603 nm

From the Deep4Chem optical property database
